Source: US10011571B2, “Preparation method for aromatic heterocyclic compound used as selective JAK3 and/or JAK1 kinase inhibitor and application of aromatic heterocyclic compound” (SHENZHEN CHIPSCREEN BIOSCIENCES, LTD., priority 2014, dated 2018)

Columns and labels:
JAK2 [1] = molecular target: T1, JAK2 (Homo sapiens (Human), UniProt O60674); test: Eurofins IC50Profiler radiometric kinase assay, JAK2; type: biochemical; conditions: 9 semilog concentrations
Excerpt: A proportion of the compounds of the present invention are subjected to kinase profile screening (KinaseProfiler™)) and enzymatic inhibitory activity (IC50Profiler™)) assay by entrusting Eurofins company (http://www.eurofins.com). Besides the kinases in the JAK family, the kinases that have been screened for their activity also include most Group 3F and Group 4 kinases (ITK, BLK, TBK1, VEGFRs, ERBBs, etc.), and blood system related kinases (Zhang J. et al. 2009, Nat. Rev. Cancer., 9: 28-39). The concentration of the test compound for kinase profile screening is 1 μM, and a gradient of 9 semilog concentration gradients are used to determine IC50. Detection is carried out according to standard procedure of Eurofins Company. Briefly, according to the requirements of different kinase reactions, 0.2 μL test compound (50 μM, dissolved in dimethyl sulfoxide (DMSO)) is added to reaction buffer containing specific kinase (the buffer system containing 20 mM MOPS, 1 mM EDTA, 0.01% Brij-35, 5% Glycerol, 0.1% β-mercaptoethanol, 1 mg/mL BSA, or 50 mM TRIS, 0.1 mM EGTA, 0.1 mM Na3VO4, 0.1% β-mercaptoethanol, 1 mg/mL BSA, based on the type of kinase used). Subsequently, a kinase specific substrate at a final concentration of 50 μM (specific substrate used for specific kinase), 10 mM Mg Acetate and isotope-labeled γ-^33P ATP (radio-activity of about 500 cpm/pmol) are sequentially added to a total volume of 10 μL for the reaction system. After incubation at room temperature for 40 min, the reaction is terminated by adding 3% phosphoric acid solution. The mixture is then transferred to a filter-type low temperature spray dryer (P30 filtermat), and washed by 75 mM phosphoric acid solution for 3 times and by methanol once. After drying, radio-activity is detected. For specific procedure, see the standard procedure provided by Eurofins Company: http://www.eurofins.com/media/9724077/kinaseprofiler_assay_protocol_guide_eurofins_v64.pdf).
Target sequence in this assay (O60674 whole entry, species assumed): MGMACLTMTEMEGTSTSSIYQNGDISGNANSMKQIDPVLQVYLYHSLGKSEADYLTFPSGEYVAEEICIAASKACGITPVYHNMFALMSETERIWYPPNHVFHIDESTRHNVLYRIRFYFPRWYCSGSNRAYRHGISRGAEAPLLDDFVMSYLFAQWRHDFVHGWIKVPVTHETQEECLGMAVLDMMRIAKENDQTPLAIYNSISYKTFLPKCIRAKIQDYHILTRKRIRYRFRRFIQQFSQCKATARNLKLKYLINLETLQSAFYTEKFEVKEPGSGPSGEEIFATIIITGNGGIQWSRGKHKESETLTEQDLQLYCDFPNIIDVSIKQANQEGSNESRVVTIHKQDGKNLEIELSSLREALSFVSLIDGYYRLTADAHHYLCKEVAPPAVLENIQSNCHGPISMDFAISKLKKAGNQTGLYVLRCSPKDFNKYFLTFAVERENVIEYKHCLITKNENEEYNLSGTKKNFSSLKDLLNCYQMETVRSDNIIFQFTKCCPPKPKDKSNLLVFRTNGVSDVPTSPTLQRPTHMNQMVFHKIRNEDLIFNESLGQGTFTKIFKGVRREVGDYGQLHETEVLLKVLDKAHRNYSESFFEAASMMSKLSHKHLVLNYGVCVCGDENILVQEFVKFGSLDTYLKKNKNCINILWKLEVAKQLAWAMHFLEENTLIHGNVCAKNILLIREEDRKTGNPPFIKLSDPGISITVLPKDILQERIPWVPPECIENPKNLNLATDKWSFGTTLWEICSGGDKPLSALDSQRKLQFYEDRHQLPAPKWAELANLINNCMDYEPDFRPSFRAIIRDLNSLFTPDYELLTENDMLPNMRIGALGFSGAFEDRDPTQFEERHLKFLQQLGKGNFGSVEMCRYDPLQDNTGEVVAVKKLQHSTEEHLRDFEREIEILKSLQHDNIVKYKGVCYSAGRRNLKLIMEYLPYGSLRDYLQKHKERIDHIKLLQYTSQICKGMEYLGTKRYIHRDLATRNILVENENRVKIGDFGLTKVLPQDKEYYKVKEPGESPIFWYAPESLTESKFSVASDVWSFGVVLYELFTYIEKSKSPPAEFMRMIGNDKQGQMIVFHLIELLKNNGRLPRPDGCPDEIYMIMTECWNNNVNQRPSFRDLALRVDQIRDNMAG

JAK2 [2] = molecular target: T1, JAK2; test: Z'-LYTE enzymatic activity detection, JAK2; type: biochemical; conditions: test compound 30 nM; for inhibition at 0.03 µM: read-out: JAK2 % inhibitory rate @30 nM
Outline: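 GST-tagged human recombinant kinases with Z′-LYTE peptides (Tyr6 for JAK1, Tyr4 for JAK2 and JAK3), ATP from kit, reacted 1 h at room temperature; development 1 h, ratio 445/520 nm at 400 nm excitation gives phosphorylation. Inhibition vs solvent control at 30 nM (JAK2, JAK3) or 300 nM (JAK1); tofacitinib as positive control.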
Target sequence in this assay (O60674 whole entry): as the sequence (O60674 whole entry, species assumed) above

Structure (SMILES) | IC50 (JAK2 [1]) | JAK2 RV (ratio between the inhibitory rate of the test compound and that of Xeljanz) (JAK2 [2]) | inhibition at 0.03 µM (JAK2 [2])
C=CC(=O)N(C)c1cc(Nc2ncc(Cl)c(NCCCNC(=O)c3ccc(C#N)cc3)n2)ccc1F [Example 7, N-(3-(5-chloro-2-(4-fluoro-3-(N-methylacrylamido)phenylamino)pyrimidinyl-4-amino)propyl)-4-cyano-benzamide] | 1.4 µM | 0.08 | 5%
C=CC(=O)N(C)c1cc(Nc2ncc(Cl)c(NCCCNC(=O)c3ccc(C(F)(F)F)cc3)n2)ccc1F [Example 22, N-(3-(5-chloro-2-(4-fluoro-3-(N-methylacrylamido)phenylamino)pyrimidinyl-4-amino)propyl)-4-trifluoromethylbenzamide] | > 10 µM | – | 0%
C=CC(=O)N(C)c1cc(Nc2ncc(Cl)c(NCCCNC(=O)c3ccc(F)cc3)n2)ccc1F [Example 23, N-(3-(5-chloro-2-(4-fluoro-3-(N-methylacrylamido)phenylamino)pyrimidinyl-4-amino)propyl)-4-fluorobenzamide] | 1.92 µM | – | 0%
